{
  "source": "paper PMC4949444",
  "about": "(Scientific Reports, 2016)",
  "key": {"HiB5 cells": {"tested_on": "HiB5 cells", "assay": "Quinolinic acid-induced cell death and apoptosis in HiB5 cells", "assay_type": "cell-based", "method": "(§1) Figure 4 In vitro neuroprotective action of VCE-003.2. (a) HiB5 cells were treated with quinolinic acid (QA; 2,5 mM) in the presence or the absence of VCE-003.2 (50 and 250 nM) and cell viability was determined after 24 h by the MTT assay. (b) QA-induced apoptosis measured by cleaved caspase 3 immunostaining (upper panel) of differentiating HiB5 cells was quantified in the presence or absence of VCE-003.2 (250 nM). Cell counts were referred to total cell nuclei counterstained with DAPI and c-caspase3^+ cell quantification is shown in the lower panel. […]. (d) Aggregation of mut-Htt was assessed by fluorescence microscopy in immortalized striatal STHdh transfected cells with a CFP-tagged expression vector of mutant huntingtin (mut-Htt) and counterstained with fluorescent phalloidin (upper panel). […]. Results are representative of three independent experiments. Values are expressed as means ± S. D. *p < 0.05 and ***p < 0.001 vs. Vehicle; ^#p < 0.05 ^##p < 0.01 vs. QA. […]\n(§2) The HiB5 hippocampal progenitor cell line (kindly provided by Prof. Z. Kokaia, Lund Stem Cell Center, Sweden) was grown as described[46] in DMEM supplemented with 2 mM glutamine, 1% penicillin/streptomycin and 10% (v/v) fetal calf serum (FCS; Lonza, Switzerland). […] Cell viability was determined after 24 h using the 3-[4,5-dimethylthiazol-2-yl]-2,5-diphenyltetrazolium bromide (MTT) tesresults int. […]"}, "N2a cells": {"tested_on": "N2a cells", "assay": "Glutamate-induced excitotoxicity in N2a cells (MTT)", "assay_type": "cell-based", "conditions": "15 mM glutamate 24 h", "method": "Figure 1 VCE-003.2 synthesis and characterization. (a) Schematic representation of VCE-003.2 synthesis. […] The indicated concentrations were tested and results were plotted to obtain the polynomial trend on a logarithmic range. IC50 values are indicated within the graph. […]. HEK293 cells were co-transfected with GAL4-PPARγ and GAL4-luc and incubated with the indicated compound concentrations for 6 hours prior to luciferase activity determination. Results are expressed as the fold induction ± S.D. relative to untreated control. (d) N2a cells were incubated with VCE-003 and VCE-003.2 as indicated during 24 hours and cell viability was determined by the MTT assay. Results are expressed as percentage of cell viability against the negative control (100%). (e) N2a cells were pre-treated with the compounds for 30 min and incubated during 24 h with 15 mM glutamate and cell viability determined by MTT. Results are expressed as percentage of cell viability against the negative control (100%). All experiments are shown as mean ± S.D. from at least three independent experiments. Statistics: *^,#,†p < 0.05, **^,##,††p < 0.01 and ***^,###p < 0.001. […] | Briefly, N2a cells were seeded at a density of 1 × 10^3 cells/well in 96-well plates, treated with increasing concentrations of VCE-003 or VCE-003.2 for 24 hours and cell viability was measured by the MTT method. […]. […]"}, "STHdh^Q111/Q111": {"tested_on": "STHdh^Q111/Q111", "assay": "Serum deprivation survival of STHdh Q111/Q111 striatal neuroblasts (MTT)", "assay_type": "cell-based, mouse", "conditions": "STHdh Q111/Q111, 72 h", "method": "as §1, §2"}, "[1]": {"tested_on": "mutant huntingtin (mut-Htt) aggregates in striatal STHdh cells", "assay": "Mutant huntingtin aggregation in transfected STHdh cells", "assay_type": "cell-based, mouse", "conditions": "STHdh cells transfected with exon 1 mut-htt, 94 polyglutamine repeats", "method": "as §1, §2"}, "PPARγ": {"target": "T1, PPARγ (Homo sapiens, UniProt P37231)", "T1 construct": "purchased Life Technologies", "T1 sequence (P37231 232-505 limits assumed)": "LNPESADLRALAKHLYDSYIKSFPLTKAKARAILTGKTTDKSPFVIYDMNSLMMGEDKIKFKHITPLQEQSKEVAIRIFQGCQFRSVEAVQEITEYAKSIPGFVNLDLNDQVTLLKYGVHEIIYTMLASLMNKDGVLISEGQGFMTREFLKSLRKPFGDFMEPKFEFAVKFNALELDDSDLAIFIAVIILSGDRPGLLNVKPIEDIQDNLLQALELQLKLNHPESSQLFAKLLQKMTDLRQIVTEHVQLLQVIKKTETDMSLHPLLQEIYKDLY", "assay": "biochemical", "assay_type": "binding", "quoted_text": "The indicated concentrations were tested and results were plotted to obtain the polynomial trend on a logarithmic range. […] HEK293 cells were co-transfected with GAL4-PPARγ and GAL4-luc and incubated with the indicated compound concentrations for 6 hours prior to luciferase activity determination. Results are expressed as the fold induction ± S.D. relative to untreated control. […] All experiments are shown as mean ± S.D. from at least three independent experiments.\nTo determine PPARγ binding activity the PolarScreen^TM PPAR Competitor Assay kit (Life Technologies, CA, USA) was used following the manufacturer’s instructions. […] To study PPARγ transcriptional activity HEK293 cells were seeded in 24-well plates and transiently co-transfected with the expression vector GAL4-PPARγ and the luciferase reporter vector GAL4-luc using Roti-Fect (Carl Roth, Karlsruhe, Germany) following the manufacturer’s instructions. To correct for transfection efficacy, 100 ng Renilla luciferase (pRL-CMV) was also cotransfected. After stimulation, the luciferase activities were quantified using Dual-Luciferase Assay (Promega, Madison, WI, USA)."}, "Nrf2 pathway": {"tested_on": "Nrf2 pathway", "assay": "Nrf2 transcriptional assay (NQO1-ARE-Luc) in N2a cells", "assay_type": "cell-based", "conditions": "6 hours", "method": "Nrf2 transcriptional assay: To study Nrf2 transcriptional activity N2a cells were seeded (105/ml) in 24-well plates and transientl y transfected with the plasmid NQO1-ARE-Luc using Roti©-Fect following the manufacturer’s instructions (Carl Roth, Karlsruhe, German y). After 24 hours, cells were incubated wi th the compounds at the concentrations indicated during 6 hours and the luciferase activit y was determined using an Autolumat LB 953 (EG&G Berthold, Bad Wildbad, Germany). Protein content was determined b y the Bradford method to calculate R LU/Pg of protein and the results were expressed as a fold induction over untreated cells.\nSupplementary Figure S1. Non-elect rophilic activity for VCE-003.2. (a) Reactive ox ygen species production.\nIn cu c yt e TM Liv e-Cell Im agin g S ystem. Results are ex pressed as m ean of t otal integrated intensity (ROS positive cells) ± S.D. (b) Effect on Nrf2 transcriptional activity. N2a cells were transientl y trans fected with the NQO1-ARE-Luc plasmid and incubated with the indicated compound concentrations for 6 hours prior to luciferase activit y determination.\nResults are expressed as the fold induction ± S.D. relative to untreated control. All the results are representative of at least three independent experiments. Statistics: **p<0.01 VCE-003 treatment vers us Vehicle treated cells."}},
  "data": [
    {"compound": "CCCCCC1=C(NCC)C(=O)C(C/C=C(\\C)CCC=C(C)C)=C(O)C1=O", "note": "[VCE-003.2]", "values": [
      {"measurement": "QA-induced NP cell death", "setting": "HiB5 cells; HiB5, QA 2,5 mM, VCE-003.2 50 and 250 nM, 24 h MTT", "value": "fully prevented"},
      {"measurement": "QA-induced apoptosis (cleaved caspase 3)", "setting": "HiB5 cells; differentiating HiB5, VCE-003.2 250 nM", "value": "significantly inhibited"},
      {"measurement": "prevention of glutamate-induced excitotoxicity", "setting": "N2a cells", "value": "able to prevent excitotoxicity induced by glutamate"},
      {"measurement": "neuronal viability after serum deprivation", "setting": "STHdh^Q111/Q111", "value": "improved"},
      {"measurement": "cells with mut-Htt aggregates", "setting": "[1]", "value": "reduced the number of cells with aggregates"},
      {"measurement": "IC50", "setting": "PPARγ", "value": 1200, "unit": "nM"},
      {"measurement": "activation of the Nrf2 pathway", "setting": "Nrf2 pathway", "value": "none of these bioactivities were induced"}
    ]}
  ]
}
